Results taken from patent publication US20120082736A1, “Small-molecule TNF modulator to reduce the side effects of chemotherapy and radiotherapy” (GeneBlue Corporation, priority 2010, published 2012).

What was measured:
[1] = within 1 h, cited from earlier work
[2] = tested on: BDF1 female mice treated with cisplatin; assay: Effect of pretreatment on BUN/creatinine, AST/ALT, WBC/platelet in blood of cisplatin-treated mice (Example 2); assay type: in vivo; conditions: blood day 6; for platelet count, effect of pretreatment: vs Gp 1 (Control)
Method: Gp 1: medium (saline). Gp 2: saline followed by cisplatin (2.5 mg/kg) 30 min later. Gp 3: UTL-5g (15 mg/kg) followed by cisplatin (2.5 mg/kg) 30 min later. Gp 4: UTL-5g (30 mg/kg) followed by cisplatin (2.5 mg/kg) 30 min later. Gp 5: UTL-5g (60 mg/kg) followed by cisplatin (2.5 mg/kg) 30 min later. Gp 6: amifostine (200 mg/kg) followed by cisplatin (2.5 mg/kg) 30 min later; Gp 7: saline followed by cisplatin (5 mg/kg) 30 min later. Gp 1-Gp 6 were daily ×5, but Gp 7 was by single dose on day 0 only. StDev is shown for each Gp (n=5 for each group except for Gp 7, n=3). ** two-tailed p<0.005 vs medium control by Student's t-test.
(§1) Gp 1: medium (saline). Gp 2: saline followed by cisplatin (2.5 mg/kg) 30 min later. Gp 3: UTL-5g (15 mg/kg) followed by cisplatin 30 min later. Gp 4: UTL-5g (30 mg/kg) followed by cisplatin (2.5 mg/kg) 30 min later. Gp 5: UTL-5g (60 mg/kg) followed by cisplatin (2.5 mg/kg) 30 min later. Gp 6: amifostine (200 mg/kg) followed by cisplatin (2.5 mg/kg) 30 min later. Gp 7: saline followed by cisplatin (5 mg/kg) 30 min later. Gp 1-Gp 6 were daily ×5, but Gp 7 was by single dose on day 0 only. StDev is shown for each Gp (n=5 for each group except n=4 for Gp 7). * P<0.05, ** p<0.005 vs. medium control (Gp 1) by Student's t-test (two-tailed).
as §1, with “p<0.005, *** p<0.0005” for “p<0.005”, “control” for “control (Gp 1)”
BDF1 female mice (average wt ˜20 g/mouse) were randomly divided into the following groups (5 mice per group) and each treated daily ×5 (starting from day 0) by ip injection (0.25 mL/mouse), except in Gp 7, each was treated by a single dose ip injection (0.25 mL/mouse) on day 0 only, as described below • Gp 1: medium (saline) followed by medium (saline) 30 min later • Gp 2: medium (saline) followed by cisplatin (2.5 mg/kg) 30 min later • Gp 3: UTL-5g (15 mg/kg) followed by cisplatin (2.5 mg/kg) 30 min later • Gp 4: UTL-5g (30 mg/kg) followed by cisplatin (2.5 mg/kg) 30 min later • Gp 5: UTL-5g (60 mg/kg) followed by cisplatin (2.5 mg/kg) 30 min later • Gp 6: amifostine (200 mg/kg) followed by cisplatin (2.5 mg/kg) 30 min later • Gp 7: medium (saline) followed by cisplatin (5 mg/kg) 30 min later (single dose on Day 0 only)
Preparation of the test samples are described below: • Cisplatin: Cisplatin was dissolved in saline (0.2 and 0.4 mg/mL in saline) for 2.5 and 5 mg/kg ip injection. • UTL-5g: The stock solution of UTL-5g was first dissolved in DMSO and equal volume of Cremophor/propylene glycol (60/40 v/v) was added to make a stock solution. Immediately before the injection, saline was added to this temporary solution at a 90:10 v/v ratio and mixed thoroughly. Three concentrations for ip injection were prepared (1.25, 2.5, and 5 mg/mL) so that the doses are equivalent to 15, 30, and 60 mg/kg with a 0.25 mL injection. • Amifostine: The stock solution of amifostine was dissolved in saline to the desired concentration (16 mg/mL) for the 200 mg/kg injection.
Cardiac puncture was used to obtain blood from each mouse on day 6. To assess liver/kidney protection by UTL-5g, all blood samples were analyzed for BUN, creatinine, AST, and ALT by the chemistry lab at Henry Ford Health System. Unopette® (Becton Dickinson, Franklin Lakes, N.J.) diluting systems and a hemocytometer were used to assess the effect of UTL-5g on WBC and platelet counts in blood.

tumor cells = conditions: animal data; cited from earlier work
TNF-α = TNF-α levels in plasma of cisplatin-treated mice (commercial assay kit, eBioscience); assay type: in vivo; conditions: cisplatin 2.5 mg/kg ip daily ×5; pooled plasma day 6
Method: FIG. 5. Effect of UTL-5g on TNF-α levels in plasma for mice treated with cisplatin. Gp 1, medium control (saline) only; Gp 2, saline followed by cisplatin (2.5 mg/kg) 30 min later; Gp 3, UTL-5g (15 mg/kg) followed by cisplatin 30 min later; Gp 4, UTL-5g (30 mg/kg) followed by cisplatin 30 min later; Gp 5, UTL-5g (60 mg/kg) followed by cisplatin 30 min later. Y axis represents the relative levels of TNF-α assuming 0% for Gp 1 (Control). Level of TNF-α on the figure is based on the average of 2 readings. […]
Using the samples from the same animal study, TNF-α levels in plasma were analyzed. […]

BDF1 mice = assay: Cisplatin side-effect time course / MTD, ip daily ×5 (Example 1); assay type: in vivo; conditions: ip daily ×5, BDF1 mice
Method: First, 0.25 mL of 0.2 mg/mL cisplatin (eq to 2.5 mg/kg) in saline was injected ip, daily ×5, in BDF1 mice. Saline was used as a control. Two mice were used per group and sacrificed on day 0 (control), 2, 4, 7, 9, 11, and 15. In addition, 2 BDF1 mice were injected with a higher dose, 0.25 mL of 0.4 mg/mL cisplatin (eq to 5 mg/kg), daily ×5. Unfortunately, for the higher dose, 1 mouse died on day 7 and the second was euthanized on day 14. This confirms the MTD of cisplatin was <5 mg/kg by ip daily ×5 as shown in the MTD study.
To further narrow down the exact day between day 4 and 7, a follow-up animal study was conducted employing cisplatin at 2.5 mg/kg and the mice were sacrificed on day 0 (control), 5, 6, and 7 (2 mice per point).

[3] = ip 30 min before cisplatin 2.5 mg/kg, daily ×5, UTL-5g 15, 30, 60 mg/kg, amifostine 200 mg/kg
[4] = cisplatin 2.5 mg/kg ip daily ×5 or 5 mg/kg single dose
[5] = cisplatin 5 mg/kg ip single dose day 0 (Gp 7) vs Control (Gp 1)

Structure (SMILES): NCCCNCCSP(=O)(O)O [amifostine, reference compound]
- cleared from the plasma, share of the peak concentration ([1]; amifostine): 95%
- metabolite cleared from the plasma, share of the peak concentration ([1]; metabolite of amifostine): 50%
- BUN levels, effect of pretreatment [2, 3]: essentially the same reduction
- creatinine, effect of pretreatment [2, 3]: Essentially the same results
- platelet count, effect of pretreatment [2, 3]: statistically significant decrease on platelet count
- platelet count, effect of pretreatment ([2]; ip 30 min before cisplatin 2.5 mg/kg, daily ×5, UTL-5g 15, 30, 60 mg/kg, amifostine 200 mg/kg, listed as Amifostine): does not have similar positive effect on platelet production
- tumor-protective effect (tumor cells): may have tumor-protective effect

Structure (SMILES): N.N.[Cl][Pt][Cl] [cisplatin, cis-dichlorodiammine platinum, reference compound]
- ALT levels, effect of cisplatin [2, 4]: elevated by cisplatin
- AST levels, effect of cisplatin [2, 4]: elevated by cisplatin
- BUN levels, effect of cisplatin [2, 4]: elevated by cisplatin in a dose-dependent manner
- creatinine, effect of cisplatin [2, 4]: Essentially the same results
- WBC count, effect of cisplatin [2, 5]: lower WBC count as compared to Control
- platelet count, effect of cisplatin [2, 5]: did decrease platelet count significantly
- TNF-α in plasma, effect of cisplatin (TNF-α): elevated by cisplatin
- MTD of cisplatin (BDF1 mice): < 5 mg/kg
